Measurements from patent US4647574A, “Hypoglycemic hydantoin derivatives” (Nippon Zoki Pharmaceutical Co., Ltd., priority 1984, dated 1987).

What was measured:
Blood Glucose = test: Hypoglycemic effect (modified method by Dulin et al.); type: in vivo, rat (Sprague-Dawley-strain male); details: 2 hours; for Blood Glucose Level: glucose-loaded fasted rats, control 134.6 ± 2.8
Description: Groups of 10 Sprague-Dawley-strain male rats (weighing about 250 g each) which had fasted for 18 hours were used for measurement of hypoglycemic effect according to the modified method by Dulin et al. (Dulin et al, Proc. Soc. Expl. Med., 107, 245 (1961)). That is, 0.5 ml/100 g of 20% aqueous solution of glucose was subcutaneously administered into the backs of rats to prevent a decrease in blood glucose level because of the fasting. […] The obtained blood sample was allowed to stand for 30 minutes to complete the coagulation and was centrifuged to obtain the serum. Blood sugar level was measured according to the mutalotase GOD method (Trinder, Ann. Clin. Biochem., vol. 6, p. 24 ([…])).

serum free fatty acid = test: Hypolipidemic effect: serum free fatty acid; type: in vivo, rat (Wister strain male); details: 100 mg/kg oral, 2 hours, fasted rats; for Serum Fatty Acid Decrease: vs control; for Serum Fatty Acid Level: control 0.51 ± 0.44
Description: (§1) The test drugs were orally administered to groups of 6 Wisterstrain male rats (each weighing approximately 210-250 g) which had fasted for 20 hours. 2 hours later, the serum was obtained in the same manner as described in (2). Serum triglyceride was measured by GPO-p-chlorophenol colorimetric determination (Richard et al., Clinical Chemistry, vol. 24, p. 1343 (1978)) and serum free fatty acid was measured according to the Acyl CoA Synthetase-Acyl CoA Oxidase method (Shimizu, et al., Biochem. Biophys. Res. Commun., vol. 91, p. 108 (1979)).

excreted sodium = test: Diuretic effect: excreted sodium in rats (Lipschitz method); type: in vivo, rat (Long-Evans strain male); details: 20 mg/kg oral, within 1 day
Description: 20 mg/kg of the compound 1 of the present invention were orally administered to Long-Evans strain male rats (weighing about 130-150 g each), and the total amount of excreted sodium within 1 day was then measured according to the method by Lipschitz (JPFT, Vol. 79, p. 97 (1943)).

Serum Triglyceride = test: Hypolipidemic effect: serum triglyceride; type: in vivo, rat (Wister strain male); details: 100 mg/kg oral, 2 hours, fasted rats; for Serum Triglyceride Decrease: vs control; for Serum Triglyceride Level: control 33.5 ± 2.9
Description: as §1

sodium in urine = test: Diuretic effect: sodium in urine in mice; type: in vivo, mouse; details: subcutaneous, up until 2 hours after the administration
urine sugar = test: Urine sugar in glucose loaded rats; type: in vivo, rat; details: 200 mg/kg oral
Description: In addition, 200 mg/kg of the compound 1 of the present invention were orally administered to glucose loaded rats and the urine sugar was measured.

[1] = Rattus norvegicus, 200 mg/kg oral, vs control, read-out: Blood Glucose Decrease
[2] = Rattus norvegicus, 50 mg/kg oral, vs control, read-out: Blood Glucose Decrease

Structure (SMILES) | Blood Glucose Level (Blood Glucose; 200 mg/kg oral) [mg/dL] | inhibition in vivo at 200 mg/kg (Blood Glucose; [1]) [%] | Serum Fatty Acid Decrease (serum free fatty acid) [%] | Serum Fatty Acid Level (serum free fatty acid) [mEq/dl] | Serum Triglyceride Decrease (Serum Triglyceride) [%] | Serum Triglyceride Level (Serum Triglyceride) [mg/dL] | also measured
COC1C(=O)NC(=O)N1C (stereo not shown) [compound 5, 5-methoxy-1-methylhydantoin] | 109.4 ± 2.3 | 18.7 |  |  |  |  | 
O=C1NC(=O)N(C2CCCCC2)C1O (stereo not shown) [compound 16, 5-hydroxy-1-cyclohexylhydantoin] | 89.6 ± 2.7 | 33.4 |  |  |  |  | 
CCCCNC(=O)NS(=O)(=O)c1ccc(C)cc1 [Tolubutamide, reference compound] |  |  |  |  |  |  | Blood Glucose Level (Blood Glucose; 50 mg/kg oral): 63.4 ± 4.7 mg/dL; Blood Glucose Level (Blood Glucose; 100 mg/kg oral): 53.0 ± 4.5 mg/dL; inhibition in vivo at 50 mg/kg (Blood Glucose; [2]): 52.9%; inhibition in vivo at 100 mg/kg (Blood Glucose; Rattus norvegicus, 100 mg/kg oral, vs control, read-out: Blood Glucose Decrease): 60.6%
O=C1NC(=O)N(C2CCCC2)C1O (stereo not shown) [compound 15, 5-hydroxy-1-cyclopentylhydantoin] | 85.3 ± 5.9 | 36.6 |  |  |  |  | 
CN1C(=O)NC(=O)C1O (stereo not shown) [compound 1, 5-hydroxy-1-methylhydantoin] | 81.8 ± 4.0 | 39.2 | 66 | 0.17 ± 0.01 | 68 | 10.7 ± 1.3 | total amount of excreted sodium, ratio to control group (excreted sodium): 1.8 times; Blood Glucose Level (Blood Glucose; 25 mg/kg oral): 89.0 ± 4.1 mg/dL; Blood Glucose Level (Blood Glucose; 50 mg/kg oral): 87.1 ± 3.3 mg/dL; inhibition in vivo at 25 mg/kg (Blood Glucose; Rattus norvegicus, 25 mg/kg oral, vs control, read-out: Blood Glucose Decrease): 33.9%; inhibition in vivo at 50 mg/kg (Blood Glucose; [2]): 35.3%; increase in the amount of sodium in urine as compared with the control group (sodium in urine): 50.5%; urine sugar, difference between medicated and control groups (urine sugar): No difference was found between the medicated and control groups
CN1CC(=O)NC1=O [compound 23, 1methylhydantoin] | 106.9 ± 3.9 | 20.6 | 43 | 0.29 ± 0.01 | 45 | 18.5 ± 1.8 | 
CCN1C(=O)NC(=O)C1O (stereo not shown) [compound 3, 5-hydroxy-1-ethylhydantoin] | 76.0 ± 3.8 | 43.5 |  |  |  |  | 
CCCCN1C(=O)NC(=O)C1O (stereo not shown) [compound 4, 5-hydroxy-1-butylhydantoin] | 82.6 ± 3.6 | 38.6 | 41 | 0.30 ± 0.01 | 54 | 15.3 ± 2.4 | 
CN1C(=O)NC(O)C1=O (stereo not shown) [compound 2, 5-hydroxy-3-methylhydantoin] | 115.5 ± 3.9 | 14.2 | 45 | 0.28 ± 0.04 | 59 | 13.8 ± 0.9 | 
